# Source: ChEMBL document CHEMBL1671654, “In vivo activity of the pyrrolopyrazolyl-substituted oxazolidinone RWJ-416457” (Antimicrob Agents Chemother, 2009)
# Activity calls are given as the source filed them. No cut-off for these calls is given here.
# Tests used:
# Staphylococcus aureus [1] = experiment: Antibacterial activity against methicillin-susceptible Staphylococcus aureus ATCC 13709 infected in sc dosed Swiss Webster mouse administered at 1 to 3 hrs post infection measured after 3 days; assay type: functional; settings: ATCC 13709, sc
# Staphylococcus aureus [2] = experiment: Antibacterial activity against methicillin-susceptible Staphylococcus aureus ATCC 13709 infected in iv dosed Swiss Webster mouse administered at 1 to 3 hrs post infection measured after 3 days; assay type: functional; settings: ATCC 13709, iv
# Staphylococcus aureus [3] = experiment: Bacteriostatic activity against methicillin-susceptible Staphylococcus aureus Smith ATCC 13709 infected in SKH1 mouse upto 25 mg/kg/day, sc administered post infection measured after 48 hrs; assay type: functional, organism-based
# Staphylococcus aureus [4] = experiment: Antibacterial activity against community-associated methicillin-resistant Staphylococcus aureus OC8525 infected in iv dosed Swiss Webster mouse administered at 1 to 3 hrs post infection measured after 3 days; assay type: functional
# Staphylococcus aureus [5] = experiment: Antibacterial activity against community-associated methicillin-resistant Staphylococcus aureus OC8525 infected in sc dosed Swiss Webster mouse administered at 1 to 3 hrs post infection measured after 3 days; assay type: functional
# Staphylococcus aureus [6] = experiment: Antibacterial activity against community-associated methicillin-resistant Staphylococcus aureus OC8525 infected in SKH1 mouse assessed as log reduction in CFU/g skin up to 25 mg/kg/day, sc administered post infection measured after 48 hrs; assay type: functional, organism-based
compound,measurement,setting,value
CN[C@H](CC(C)C)C(=O)N[C@H]1C(=O)N[C@@H](CC(N)=O)C(=O)N[C@H]2C(=O)N[C@H]3C(=O)N[C@H](C(=O)N[C@H](C(=O)O)c4cc(O)cc(O)c4-c4cc3ccc4O)[C@H](O)c3ccc(c(Cl)c3)Oc3cc2cc(c3O[C@@H]2O[C@H](CO)[C@@H](O)[C@H](O)[C@H]2O[C@H]2C[C@](C)(N)[C@H](O)[C@H](C)O2)Oc2ccc(cc2Cl)[C@H]1O [VANCOMYCIN],ED50,Staphylococcus aureus [1],1.7 mg/kg/day
same,ED50,Staphylococcus aureus [2],0.9 mg/kg/day
same,Activity,Staphylococcus aureus [3],Active
same,ED50,Staphylococcus aureus [4],5.6 mg/kg/day
same,ED50,Staphylococcus aureus [5],12 mg/kg/day
same,Activity,Staphylococcus aureus [6],inactive
